Experimental data published in patent publication US20080139558A1, “QUINOLONES USEFUL AS INDUCIBLE NITRIC OXIDE SYNTHASE INHIBITORS” (KALYPSYS, INC., priority 2006, published 2008).
pEC50: −log10 of the molar value.

Biological target: T1, human iNOS (Homo sapiens, UniProt P35228)
T1 construct: expressed in transfected cells; host or cells: HEK293
Experiment: DAN assay of nitric oxide production (hiNOS)
Assay type: cell-based
Conditions: enzyme expressed in HEK293 cells transiently transfected with human iNOS
Excerpt: The source of nitric oxide synthase (NOS) enzyme can be generated in several ways including induction of endogenous iNOS using cytokines and/or lipopolysaccharide (LPS) in various cell types known in the art. Alternatively, the gene encoding the enzyme can be cloned and the enzyme can be generated in cells via heterologous expression from a transient or stable expression plasmid with suitable features for protein expression as are known in the art. Enzymatic activity (nitric oxide production) is calcium independent for iNOS, while the constitutive NOS isoforms, nNOS and eNOS, become active with the addition of various cofactors added to cellular media or extract as are well known in the art. Enzymes specified in Table 1 were expressed in HEK293 cells transiently transfected with human iNOS.
A major metabolic pathway for nitric oxide is to nitrate and nitrite, which are stable metabolites within tissue culture, tissue, plasma, and urine (S Moncada, A Higgs, N Eng J Med 329, 2002 (1993)).
The level of nitrate or nitrite in the specimen can be quantified by any method known in the art which provides adequate sensitivity and reproducibility. A variety of protocols have also been described for detecting and quantifying nitrite and nitrate levels in biological fluids by ion chromatography (e.g., A Everett et al., J. Chromatogr. 706, 437 (1995); J M Monaghan et al., J. Chromatogr. 770, 143 (1997)), high-performance liquid chromatography (e.g., M Kelm et al., Cardiovasc. Res. 41, 765 (1999)), and capillary electrophoresis (MA Friedberg et al., J. Chromatogr. 781, 491 (1997)). For example, 2,3-diaminonaphthalene reacts with the nitrosonium cation that forms spontaneously from NO to form the fluorescent product 1H-naphthotriazole. Using 2,3-diaminonaphthalene (“DAN”), researchers have developed a rapid, quantitative fluorometric assay that can detect from 10 nM to 10 μM nitrite and is compatible with a multi-well microplate format. […] DAN reacts with nitrite ion and gives fluorescent naphthotriazole (MC Carré et al., Analusis 27, 835-838 (1999)). Table 1 provides the test results of various compounds of the subject invention using the DAN assay.
A specimen can be processed prior to determination of nitrate or nitrite as required by the quantification method, or in order to improve the results, or for the convenience of the investigator. For example, processing can involve centrifuging, filtering, or homogenizing the sample. If the sample is whole blood, the blood can be centrifuged to remove cells and the nitrate or nitrite assay performed on the plasma or serum fraction. If the sample is tissue, the tissue can be dispersed or homogenized by any method known in the art prior to determination of nitrate or nitrite. It may be preferable to remove cells and other debris by centrifugation or another method and to determine the nitrate or nitrite level using only the fluid portion of the sample, or the extracellular fluid fraction of the sample. The sample can also be preserved for later determination, for example by freezing of urine or plasma samples. When appropriate, additives may be introduced into the specimen to preserve or improve its characteristics for use in the nitrate or nitrite assay.
The “level” of nitrate, nitrite, or other NO-related product usually refers to the concentration (in moles per liter, micromoles per liter, or other suitable units) of nitrate or nitrite in the specimen, or in the fluid portion of the specimen. However, other units of measure can also be used to express the level of nitrate or nitrite. For example, an absolute amount (in micrograms, milligrams, nanomoles, moles, or other suitable units) can be used, particularly if the amount refers back to a constant amount (e.g., grams, kilograms, milliliters, liters, or other suitable units) of the specimens under consideration. A number of commercially available kits can be used. […]

T1 sequence (P35228 whole entry): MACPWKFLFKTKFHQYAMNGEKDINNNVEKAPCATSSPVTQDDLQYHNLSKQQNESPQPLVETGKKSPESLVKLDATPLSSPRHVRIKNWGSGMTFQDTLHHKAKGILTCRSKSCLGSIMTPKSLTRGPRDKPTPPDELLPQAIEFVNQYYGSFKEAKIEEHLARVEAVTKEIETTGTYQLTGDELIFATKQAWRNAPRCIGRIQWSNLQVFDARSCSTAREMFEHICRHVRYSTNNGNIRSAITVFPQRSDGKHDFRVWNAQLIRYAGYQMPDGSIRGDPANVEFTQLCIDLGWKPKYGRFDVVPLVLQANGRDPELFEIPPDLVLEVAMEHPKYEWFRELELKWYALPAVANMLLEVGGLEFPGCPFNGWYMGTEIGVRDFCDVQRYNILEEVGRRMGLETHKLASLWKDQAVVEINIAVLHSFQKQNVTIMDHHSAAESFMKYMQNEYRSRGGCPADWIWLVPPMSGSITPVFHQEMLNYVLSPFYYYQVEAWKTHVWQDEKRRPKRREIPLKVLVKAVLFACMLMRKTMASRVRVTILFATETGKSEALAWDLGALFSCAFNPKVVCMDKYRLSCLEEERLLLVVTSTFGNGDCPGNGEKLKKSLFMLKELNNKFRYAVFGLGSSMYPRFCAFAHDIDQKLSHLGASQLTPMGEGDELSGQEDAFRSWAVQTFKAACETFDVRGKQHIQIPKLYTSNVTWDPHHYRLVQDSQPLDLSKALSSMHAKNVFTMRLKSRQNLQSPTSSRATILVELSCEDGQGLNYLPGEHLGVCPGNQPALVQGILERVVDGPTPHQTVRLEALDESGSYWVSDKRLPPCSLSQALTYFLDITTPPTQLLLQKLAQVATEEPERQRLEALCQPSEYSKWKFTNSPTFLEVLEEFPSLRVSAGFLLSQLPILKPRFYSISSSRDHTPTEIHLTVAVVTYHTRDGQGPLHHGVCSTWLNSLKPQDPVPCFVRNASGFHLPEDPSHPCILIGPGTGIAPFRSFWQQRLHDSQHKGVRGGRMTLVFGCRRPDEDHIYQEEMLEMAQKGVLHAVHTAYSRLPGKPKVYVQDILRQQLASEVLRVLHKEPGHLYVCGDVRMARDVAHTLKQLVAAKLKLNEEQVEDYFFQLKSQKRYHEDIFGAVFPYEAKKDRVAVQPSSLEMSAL

pEC50	SMILES
≥ 5.30	Cc1ncsc1C(=O)N(c1cccc(Cl)c1)C(C)c1cc(=O)[nH]c2c(F)cccc12 (racemic) [Example 113, N-(3-Chlorophenyl)-N-(1-(8-fluoro-2-oxo-1,2-dihydroquinolin-4-yl)ethyl)-4-methylthiazole-5-carboxamide]
≥ 5.30	CC1CCCCN1c1nc2ccccc2n1Cc1cc(=O)[nH]c2c(F)c(F)ccc12 (racemic) [Example 206, 7,8-Difluoro-4-((2-(2-methylpiperidin-1-yl)-1H-benzo[d]imidazol-1-yl)methyl)quinolin-2(1H)-one]
≥ 5.30	CCC(C)Cc1nc2ccccc2n1Cc1cc(=O)[nH]c2c(F)c(F)ccc12 (racemic) [Example 220, 7,8-Difluoro-4-((2-(2-methylbutyl)-1H-benzo[d]imidazol-1-yl)methyl)quinolin-2(1H)-one]
≥ 5.30	CC(Cc1nc2ccccc2n1Cc1cc(=O)[nH]c2c(F)c(F)ccc12)C(F)(F)F (racemic) [Example 222, 7,8-Difluoro-4-((2-(3,3,3-trifluoro-2-methylpropyl)-1H-benzo[d]imidazol-1-yl)methyl)quinolin-2(1H)-one]
< 5.30	CC1CC1c1nc2ccccc2n1Cc1cc(=O)[nH]c2c(F)c(F)ccc12 (racemic) [Example 238, 7,8-Difluoro-4-((2-(2-methylcyclopropyl)-1H-benzo[d]imidazol-1-yl)methyl)quinolin-2(1H)-one]
≥ 5.30	O=c1cc(Cn2c(C3CCCO3)nc3ccccc32)c2ccc(F)c(F)c2[nH]1 (racemic) [Example 250, 7,8-Difluoro-4-((2-(tetrahydrofuran-2-yl)-1H-benzo[d]imidazol-1-yl)methyl)quinolin-2(1H)-one]
≥ 5.30	CC=C(C)c1nc2ccccc2n1Cc1cc(=O)[nH]c2c(F)c(F)ccc12 (single isomer, unassigned) [Example 210, (E or Z)-4-((2-(But-2-en-2-yl)-1H-benzo[d]imidazol-1-yl)methyl)-7,8-difluoroquinolin-2(1H)-one]
≥ 5.30	O=C(c1ccco1)N(Cc1cc(=O)[nH]c2ccccc12)c1ccccc1 [Example 1, N-((2-Oxo-1,2-dihydroquinolin-4-yl)methyl)-N-phenylfuran-2-carboxamide]
< 5.30	O=C(c1ccco1)N(Cc1cc(=O)[nH]c2ccccc12)c1ccc(Cl)cc1 [Example 2, N-(4-Chlorophenyl)-N-((2-oxo-1,2-dihydroquinolin-4-yl)methyl)furan-2-carboxamide]
< 5.30	CC(=O)N(Cc1cc(=O)[nH]c2ccccc12)c1ccccc1 [Example 3, N-[(2-Oxo-1,2-dihydroquinolin-4-yl)methyl]-N-phenylacetamide]
< 5.30	CCC(=O)N(Cc1cc(=O)[nH]c2ccccc12)c1ccccc1 [Example 4, N-((2-Oxo-1,2-dihydroquinolin-4-yl)methyl)-N-phenylpropionamide]
< 5.30	CC(C)C(=O)N(Cc1cc(=O)[nH]c2ccccc12)c1ccccc1 [Example 5, N-((2-Oxo-1,2-dihydroquinolin-4-yl)methyl)-N-phenylisobutyramide]
< 5.30	O=C(c1ccccc1)N(Cc1cc(=O)[nH]c2ccccc12)c1ccccc1 [Example 6, N-[(2-Oxo-1,2-dihydroquinolin-4-yl)methyl]-N-phenylbenzamide]
< 5.30	O=C(c1cccs1)N(Cc1cc(=O)[nH]c2ccccc12)c1ccccc1 [Example 7, N-[(2-Oxo-1,2-dihydroquinolin-4-yl)methyl]-N-phenylthiophene-2-carboxamide]
≥ 5.30	CN(Cc1cc(=O)[nH]c2ccccc12)C(=O)c1ccco1 [Example 8, N-Methyl-N-[(2-oxo-1,2-dihydroquinolin-4-yl)methyl]-2-furamide]
≥ 5.30	CC(C)N(Cc1cc(=O)[nH]c2ccccc12)C(=O)c1ccco1 [Example 9, N-Isopropyl-N-[(2-oxo-1,2-dihydroquinolin-4-yl)methyl]-2-furamide]
≥ 5.30	COc1ccc(N(Cc2cc(=O)[nH]c3ccccc23)C(=O)c2ccco2)cc1 [Example 10, N-(4-Methoxyphenyl)-N-[(2-oxo-1,2-dihydroquinolin-4-yl)methyl]-2-furamide]

pEC50	SMILES
≥ 5.30	Cc1ccc(N(Cc2cc(=O)[nH]c3ccccc23)C(=O)c2ccco2)cc1 [Example 11, N-(4-Methylphenyl)-N-[(2-oxo-1,2-dihydroquinolin-4-yl)methyl]-2-furamide]
≥ 5.30	O=C(c1ccco1)N(Cc1cc(=O)[nH]c2ccccc12)c1ccncc1 [Example 13, N-[(2-Oxo-1,2-dihydroquinolin-4-yl)methyl]-N-pyridin-4-yl-2-furamide]
< 5.30	O=C(c1ccco1)N(Cc1cc(=O)[nH]c2ccccc12)c1cccc(Cl)c1 [Example 14, N-(3-Chlorophenyl)-N-[(2-oxo-1,2-dihydroquinolin-4-yl)methyl]-2-furamide]
≥ 5.30	CN(Cc1cc(=O)[nH]c2ccccc12)c1ccccc1 [Example 15, 4-[(Methyl-phenyl-amino)-methyl]-1H-quinolin-2-one]
≥ 5.30	Cc1cccc2c(CN(C(=O)c3ccco3)c3ccccc3)cc(=O)[nH]c12 [Example 16, N-((8-Methyl-2-oxo-1,2-dihydroquinolin-4-yl)methyl)-N-phenylfuran-2-carboxamide]
< 5.30	O=C(c1ccco1)N(Cc1cc(=O)[nH]c2c(F)cccc12)c1ccccc1 [Example 17, N-((8-Fluoro-2-oxo-1,2-dihydroquinolin-4-yl)methyl)-N-phenylfuran-2-carboxamide]
< 5.30	O=C(c1ccco1)N(Cc1cc(=O)[nH]c2ccc(F)cc12)c1ccccc1 [Example 18, N-((6-Fluoro-2-oxo-1,2-dihydroquinolin-4-yl)methyl)-N-phenylfuran-2-carboxamide]
≥ 5.30	COc1ccc2[nH]c(=O)cc(CN(C(=O)c3ccco3)c3ccccc3)c2c1 [Example 19, N-((6-Methoxy-2-oxo-1,2-dihydroquinolin-4-yl)methyl)-N-phenylfuran-2-carboxamide]
≥ 5.30	Cc1ccc2c(CN(C(=O)c3ccco3)c3ccccc3)cc(=O)[nH]c2c1 [Example 20, N-((7-Methyl-2-oxo-1,2-dihydroquinolin-4-yl)methyl)-N-phenylfuran-2-carboxamide]
≥ 5.30	Cc1ccc2[nH]c(=O)cc(CN(C(=O)c3ccco3)c3ccccc3)c2c1 [Example 21, N-((6-Methyl-2-oxo-1,2-dihydroquinolin-4-yl)methyl)-N-phenylfuran-2-carboxamide]
≥ 5.30	O=c1cc(CN(Cc2ccco2)c2ccccc2)c2ccccc2[nH]1 [Example 22, 4-(((Furan-2-ylmethyl)(phenyl)amino)methyl)quinolin-2(1H)-one]
≥ 5.30	O=c1cc(CN(CCc2ccco2)c2ccccc2)c2ccccc2[nH]1 [Example 23, 4-(((2-(Furan-2-yl)ethyl)(phenyl)amino)methyl)quinolin-2(1H)-one]
≥ 5.30	O=c1cc(CN(CCCc2ccco2)c2ccccc2)c2ccccc2[nH]1 [Example 24, 4-(((3-(Furan-2-yl)propyl)(phenyl)amino)rmethyl)quinolin-2(1H)-one]
≥ 5.30	O=C(Cc1ccccc1)N(Cc1cc(=O)[nH]c2ccccc12)c1ccccc1 [Example 25, N-((2-Oxo-1,2-dihydroquinolin-4-yl)methyl)-N,2-diphenylacetamide]
< 5.30	O=C(c1ccoc1)N(Cc1cc(=O)[nH]c2ccccc12)c1ccccc1 [Example 26, N-((2-Oxo-1,2-dihydroquinolin-4-yl)methyl)-N-phenylfuran-3-carboxamide]
< 5.30	O=C(c1cncs1)N(Cc1cc(=O)[nH]c2ccccc12)c1ccccc1 [Example 27, N-((2-Oxo-1,2-dihydroquinolin-4-yl)methyl)-N-phenylthiazole-5-carboxamide]
